Measured values published in US20110236359A1 (priority 2007, published 2011).
In brackets after ≈: the same amount, converted by molar mass. Read-outs that look alike come from different tables or passages of the source.

What was measured:
Test in all cases: Antibiotic MIC plates (resistance profile)
Format in all cases: cell-based
[1] = test system: Pediococcus acidilactici MM33; details: median of two repetitions
Excerpt: (§1) The protocol was adapted from Delgado et al. (2005). Minimum Inhibitory Concentration (MIC) Plate (# GPN3F) and Anaerobe MIC Plate (# AN02B) were used to determine the antibiotic sensitivity and resistance profile of MM19 and MM33 according to the instructions of the manufacturer (Trek Diagnostic Systems; Nova Century, Burlington, ON, Canada).
(§2) Lactococcus lactis subsp. lactis MM19, Pediococcus acidilactici MM33 and Lactobacillus rhamnosus GG (ATCC 53103) from frozen glycerol stock were first inoculated in Lactobacilli MRS and incubated at 37° C. for 18 h. 100 μl of this culture were further incubated under the same conditions. This second culture was then inoculated on a MRS agar plate and incubated at 37° C. for 48 h under anaerobic conditions using GasPak Plus system (BD BBL, Sparks, Md., USA).

[2] = test system: Lactococcus lactis subsp. lactis MM19; details: MM19, median of two repetitions
Excerpt: as §1, §2

[3] = test system: Lactobacillus rhamnosus GG (ATCC 53103); details: median of two repetitions
Excerpt: as §1, §2

[4] = Pediococcus acidilactici, MM33, MM33, ANO2 plate, read-out: MIC
[5] = Lactococcus lactis, ANO2 plate, read-out: MIC
[6] = Lacticaseibacillus rhamnosus, ATCC53103, L. rhamnosus GG, ANO2 plate, read-out: MIC
[7] = Pediococcus acidilactici, MM33, MM33, GPN3F plate, read-out: MIC
[8] = Lactococcus lactis, GPN3F plate, read-out: MIC
[9] = Lacticaseibacillus rhamnosus, ATCC53103, L. rhamnosus GG, GPN3F plate, read-out: MIC

| Molecule | MIC [1, 4] | MIC [2, 5] | MIC [3, 6] | MIC ([1]; MM33, GPN3F plate) | MIC ([2]; GPN3F plate) | MIC ([3]; L. rhamnosus GG, GPN3F plate) | also measured |
| --- | --- | --- | --- | --- | --- | --- | --- |
| CC1(C)S[C@@H]2[C@H](NC(=O)[C@H](NC(=O)N3CCN(S(C)(=O)=O)C3=O)c3ccccc3)C(=O)N2[C@H]1C(=O)O [MEZ, Mezlocillin] | 8 µg/mL (≈ 14.8 µM) | < 4 µg/mL | < 4 µg/mL | – | – | – | – |
| Cc1ncc([N+](=O)[O-])n1CCO [MRD, Metronidazole] | > 16 µg/mL | > 16 µg/mL | > 16 µg/mL | – | – | – | – |
| CCN1CCN(C(=O)N[C@@H](C(=O)N[C@@H]2C(=O)N3[C@@H]2SC(C)(C)[C@@H]3C(=O)O)c2ccccc2)C(=O)C1=O [PIP, Piperacillin] | 8 µg/mL (≈ 15.5 µM) | < 4 µg/mL | < 4 µg/mL | – | – | – | – |
| CO[C@H]1/C=C/O[C@@]2(C)Oc3c(C)c(O)c4c(O)c(c(/C=N/N5CCN(C)CC5)c(O)c4c3C2=O)NC(=O)/C(C)=C\C=C\[C@H](C)[C@H](O)[C@@H](C)[C@@H](O)[C@@H](C)[C@H](OC(C)=O)[C@@H]1C [RIF, Rifampin] | – | – | – | – | – | – | MIC [1, 7]: 0.5 to 1 µg/mL (≈ 0.608 to 1.22 µM); MIC [2, 8]: > 4 µg/mL; MIC [3, 9]: < 0.5 µg/mL |
| [H]/N=C(/N)N[C@H]1[C@H](O)[C@@H](O)[C@H](O[C@@H]2O[C@@H](C)[C@](O)(C=O)[C@H]2O[C@@H]2O[C@@H](CO)[C@H](O)[C@@H](O)[C@@H]2NC)[C@@H](N/C(N)=N\[H])[C@@H]1O [STR, Streptomycin] | – | – | – | – | – | – | MIC [1, 7]: < 1000 µg/mL; MIC [2, 8]: < 1000 µg/mL; MIC [3, 9]: < 1000 µg/mL |
| CO[C@@]1(NC(=O)C2SC(=C(C(N)=O)C(=O)O)S2)C(=O)N2C(C(=O)O)=C(CSc3nnnn3C)CS[C@@H]21 (some centres unmarked) [TANS, Cefotetan] | > 64 µg/mL | > 64 µg/mL | > 64 µg/mL | – | – | – | – |
| CN(C)[C@@H]1C(O)=C(C(N)=O)C(=O)[C@@]2(O)C(O)=C3C(=O)c4c(O)cccc4[C@@](C)(O)[C@H]3C[C@@H]12 [TET, Tetracycline] | > 8 µg/mL | 0.375 µg/mL (≈ 0.844 µM) | 1 µg/mL (≈ 2.25 µM) | – | – | – | MIC [1, 7]: > 16 µg/mL; MIC [2, 8]: < 2 µg/mL; MIC [3, 9]: < 2 µg/mL |
| Amoxicillin/Clavulanic acid [AUG] | – | – | – | – | – | – | MIC ([1]; MM33, ANO2 plate): 4/2 |
| Ampicillin/Sulbactam [A/S] | – | – | – | – | – | – | MIC ([1]; MM33, ANO2 plate): 4/2 |
| Gentamicin | – | – | – | <2 µg/mL | 2 to 4 µg/mL | <2 µg/mL | – |
| Oxacillin + 2% NaCl [OXA+] | – | – | – | 2 µg/mL | 1 µg/mL | 0.25 to 0.5 µg/mL | – |
| Penicillin | – | – | – | 0.5 µg/mL | 0.25 to 0.5 µg/mL | 0.5 µg/mL | MIC ([1]; MM33, ANO2 plate): 1 µg/mL; MIC ([2]; ANO2 plate): 0.5 µg/mL; MIC ([3]; L. rhamnosus GG, ANO2 plate): 0.5 µg/mL |
| Piperacillin/Tazobactam [P/T] | – | – | – | – | – | – | MIC ([1]; MM33, ANO2 plate): 8/4; MIC ([2]; ANO2 plate): 2/4; MIC ([3]; L. rhamnosus GG, ANO2 plate): 1/4 |
| Quinupristin/Dalfopristin [SYN] | – | – | – | 1 µg/mL | 4 µg/mL | 1 to 2 µg/mL | – |
| Trimethoprim/Sulfamethoxazole [SXT] | – | – | – | >4/76 | >4/76 | >4/76 | – |
